Results on twelve compounds are retold here after patent publication US20100190980A1, “PYRAZINAMIDE COMPOUND” (Taisho Pharmaceutical Co., Ltd, priority 2007, published 2010).

One assay concerns the target T1, human liver GK (Homo sapiens, UniProt P35557).
T1 construct: GST (Glutathione S-transferase) (N); made in house; host or cells: Escherichia coli
T1 sequence (P35557 1-466 isoform P35557-2): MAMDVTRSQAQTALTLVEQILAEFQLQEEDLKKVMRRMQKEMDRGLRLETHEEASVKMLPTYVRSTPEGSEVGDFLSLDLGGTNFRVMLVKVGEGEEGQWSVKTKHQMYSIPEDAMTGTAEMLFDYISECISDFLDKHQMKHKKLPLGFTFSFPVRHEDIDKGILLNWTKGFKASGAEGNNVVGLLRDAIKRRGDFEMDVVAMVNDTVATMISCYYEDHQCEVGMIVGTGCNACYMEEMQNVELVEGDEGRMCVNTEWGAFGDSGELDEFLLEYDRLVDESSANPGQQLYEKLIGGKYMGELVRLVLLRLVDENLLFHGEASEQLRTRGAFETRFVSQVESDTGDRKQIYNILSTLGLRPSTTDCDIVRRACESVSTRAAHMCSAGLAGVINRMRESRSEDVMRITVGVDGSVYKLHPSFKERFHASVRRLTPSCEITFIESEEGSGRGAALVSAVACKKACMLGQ
The assay is described as follows: GK Activation Test. As to conditions: 4 mM 14C-labeled glucose; for EC50: concentration activating GK to 50% of the maximum activation value. It is filed as biochemical. The procedure:
A GK activation by a test compound was tested by partially modifying the method of Irwin A. Rose et al. (J. Biol. Chem. 1964 January; 239: 12-7).
The enzyme source used in this assay was human liver GK, which was allowed to express by Escherichia coli as a fusion protein having GST (Glutathione S-transferase) added to the amino terminal and purified by Glutathione Sepharose 4B (Amersham Biosciences).
The test was performed by using flat-bottom 96-well plates (Sumitomo Bakelite Co., Ltd). To each of the wells of plates, a dimethyl sulfoxide (DMSO) solution of a test compound and DMSO serving as a control were added so as to obtain a final DMSO concentration of 1%. Furthermore, 25 mM Hepes-KOH (pH=7.1), 25 mM KCl, 2 mM MgCl2, 2 mM ATP, 4 mM ^14C-labeled glucose (Amersham Pharmacia) and 1 mM DTT (dithiothreitol) (these concentrations were final concentrations) were added. Finally, human liver GK was added so as to obtain 0.24 μg/well. The reaction was initiated and carried out at room temperature.
Twenty minutes later, AG1-X4 resin (BioRad), which was suspended with 25 mM Hepes-KOH (pH=7.1), was added and allowed to bind a reaction product, a labeled glucose-6-phosphate. The whole quantity was transferred to a multi-screen plate (Millipore) and the resin was washed with water. Thereafter, labeled glucose-6-phosphate bound to the resin was eluted with a 0.5 M NaCl solution. The activity of the labeled glucose-6-phosphate eluted was measured and used as an index of GK activity.
Regarding the GK activity of a control group in a well in which DMSO alone was added as 100%, the GK activity activated by the test compound to a maximum was indicated as the maximum activation value (Emax value). Furthermore, the concentration of a test compound required for activating GK activity to 50% of the maximum activation value was indicated as an EC50 value.

In another assay the test system is SD rats. The assay is described as follows: Blood Glucose Level-Lowering Effect in SD rats. Type of assay: in vivo, rat. Particulars: oral, 0.5% methyl cellulose group = 100%. The procedure:
The effect of the compound of the present invention to decrease blood glucose level was investigated by use of SD rats.
SD rats were raised by free-feeding. From the caudal vein of 8-week old […], blood was taken and centrifugally separated to obtain the plasma. A blood glucose level of the plasma was measured by glucose CII test Wako. The rats were divided into groups of 6 rats so as to have the same average blood glucose level. In an agent administration group, a compound suspended in a 0.5% aqueous methyl cellulose solution was orally administered to the rats; whereas, in a control group, a 0.5% aqueous methylcellulose solution was orally administered. At 30 minutes, 60 minutes, 120 minutes, 240 minutes, 360 minutes and 480 minutes after the administration, blood was taken from the caudal vein of each rat. The plasma was centrifugally recovered and a blood glucose level was measured by use of glucose CII test Wako. Furthermore, a plasma insulin concentration was measured by an ultrasensitive rat insulin measuring kit (Morinaga Institute of Biological Science, Inc.). The blood glucose levels at individual time points were plotted to obtain a graph showing a change of blood glucose level.
Regarding the blood glucose level of the 0.5% methyl cellulose administration group as 100%, the blood glucose level of SD rats administrated with Compound No. 2 was indicated. In a 3 mg/kg administration group, the blood glucose level was 59% at 1 hour, 71% at 2 hours and 76% at 4 hours. Whereas, in a 10 mg/kg administration group, the blood glucose level was 53% at 1 hour, 68% at 2 hours, and 75% at 4 hours.

Regarding `Cn1ccc(NC(=O)c2nc(Sc3nncs3)cnc2Sc2ccc(F)cc2)n1` [Compound No. 41, 3-[(4-fluorophenyl)sulfanyl]-N-(1-methyl-1H-pyrazol-3-yl)-6-(1,3,4-thiadiazol-2-ylsulfanyl)pyrazine-2-carboxamide], a half-maximal effect at human liver GK (EC50) was put at 311 nM. For `Cn1ccc(NC(=O)c2nc(Sc3nnc[nH]3)cnc2Sc2ccc(F)cc2)n1` [Compound No. 2, 3-[(4-fluorophenyl)sulfanyl]-N-(1-methyl-1H-pyrazol-3-yl)-6-(4H-1,2,4-triazol-3-ylsulfanyl)pyrazine-2-carboxamide], the blood glucose level in the assay with SD rats (3 mg/kg, at 1 hour) turned out to be 59%; in the assay on SD rats (3 mg/kg, at 2 hours) it was 71%; in the assay with SD rats (3 mg/kg, at 4 hours), 76%; in the assay on SD rats (10 mg/kg, at 1 hour), 53%; with SD rats (10 mg/kg, at 2 hours), 68%; in the assay with SD rats (10 mg/kg, at 4 hours), 75%. In addition, the half-maximal effective concentration (EC50) – broadly, the concentration needed to bring the measured effect to its halfway point – at human liver GK is 104 nM. `O=C(O)c1ccc(NC(=O)c2nc(Sc3nnc[nH]3)cnc2Sc2ccc(F)cc2)nc1` [Compound No. 35, 6-[({3-[(4-fluorophenyl)sulfanyl]-6-(4H-1,2,4-triazol-3-ylsulfanyl)pyrazin-2-yl}carbonyl)amino]pyridine-3-carboxylic acid] showed an EC50 at human liver GK of 72.4 nM.

`COc1ccc(Sc2ncc(Sc3nnc[nH]3)nc2C(=O)Nc2cnccn2)cc1` [Compound No. 46, 3-[(4-methoxyphenyl)sulfanyl]-N-pyrazin-2-yl-6-(4H-1,2,4-triazol-3-ylsulfanyl)pyrazine-2-carboxamide]: the EC50 at human liver GK was found to be 59.4 nM. Still for that read-out and setting: the same measure for `Cc1nnc(Sc2cnc(Sc3ccc(F)cc3)c(C(=O)Nc3ccn(C)n3)n2)[nH]1` [Compound No. 38, 3-[(4-fluorophenyl)sulfanyl]-N-(1-methyl-1H-pyrazol-3-yl)-6-[(5-methyl-4H-1,2,4-triazol-3-yl)sulfanyl]pyrazine-2-carboxamide]: 117 nM; for `Cn1ccc(NC(=O)c2nc(Sc3nnc[nH]3)cnc2SC2CCCCC2)n1` [Compound No. 5, 3-(cyclohexylsulfanyl)-N-(1-methyl-1H-pyrazol-3-yl)-6-(4H-1,2,4-triazol-3-ylsulfanyl)pyrazine-2-carboxamide]: 171 nM. On the same count and under the same terms, the same measure for `COCCn1ccc(NC(=O)c2nc(Sc3nnc(C)[nH]3)cnc2Sc2ccc(F)cc2)n1` [Compound No. 30, 3-[(4-fluorophenyl)sulfanyl]-N-[1-(2-methoxyethyl)-1H-pyrazol-3-yl]-6-[(5-methyl-4H-1,2,4-triazol-3-yl)sulfanyl]pyrazine-2-carboxamide]: 397 nM; for `CSc1ccc(Sc2ncc(Sc3nnc(N)[nH]3)nc2C(=O)Nc2cnccn2)cc1` [Compound No. 51, 6-[(5-amino-4H-1,2,4-triazol-3-yl)sulfanyl]-3-{[4-(methylsulfanyl)phenyl]sulfanyl}-N-pyrazin-2-ylpyrazine-2-carboxamide]: 131 nM. For `Cc1nnc(Sc2cnc(Sc3ccc(S(C)(=O)=O)cc3)c(C(=O)Nc3ccn(C)n3)n2)[nH]1` [Compound No. 52, N-(1-methyl-1H-pyrazol-3-yl)-3-{[4-(methylsulfonyl)phenyl]sulfanyl}-6-[(5-methyl-4H-1,2,4-triazol-3-yl)sulfanyl]pyrazine-2-carboxamide], on human liver GK (GK activity of DMSO control = 100%, 2 mM ATP, read-out: Emax (maximum activation value)), the Emax (as a rule, the maximal effect, on the per cent scale that the assay sets) was found to be 883%. At human liver GK, this compound yielded a concentration for a half-maximal effect (EC50) of 128 nM. Turning to `Cn1ccc(NC(=O)c2nc(Sc3nnc[nH]3)cnc2Sc2ccncc2)n1` [Compound No. 24, N-(1-methyl-1H-pyrazol-3-yl)-3-(pyridin-4-ylsulfanyl)-6-(4H-1,2,4-triazol-3-ylsulfanyl)pyrazine-2-carboxamide], the response on human liver GK was half-maximal at 110 nM (EC50). The compound `O=C(Nc1cnccn1)c1nc(Sc2nnc[nH]2)cnc1Sc1ccc(F)cc1` [Compound No. 29, 3-[(4-fluorophenyl)sulfanyl]-N-(pyrazin-2-yl)-6-(4H-1,2,4-triazol-3-ylsulfanyl)pyrazine-2-carboxamide] had a half-maximal effective concentration (EC50) on human liver GK of 89.5 nM. In the case of `O=C(NC1=NCCS1)c1nc(Sc2nnc[nH]2)cnc1Sc1ccc(F)cc1` [Compound No. 25, N-(4,5-dihydro-1,3-thiazol-2-yl)-3-[(4-fluorophenyl)sulfanyl]-6-(4H-1,2,4-triazol-3-ylsulfanyl)pyrazine-2-carboxamide], on human liver GK, the concentration for a half-maximal effect (EC50) stood at 365 nM.
